Values after ≈ are worked out from the molar mass of the structure shown.
Test system: ovarian cancer cell line ES-2
Test: MTT assay for anti-ovarian cancer (cell survival)
Assay type: cell-based
Conditions: Homo sapiens, ES-2 cells, 48 hours treatment, absorbance at 570 nm, read-out: IC50 (half inhibition concentration), inhibition of ovarian cancer cells
Protocol: Exemplary Compound 1 was added into the culture media of ovarian cancer cell line ES-2 (a human ovarian cancer cell line) to determine the survival rates. Survival of cells was analyzed using MTT assay. Other suitable human ovarian cancer cell lines may be used by a skilled person in the art.
MTT assay is commonly used to analyze cell proliferation, survival rate of viable cells and cytotoxicity. MTT (3[4,5-dimethylthiazol-2-yl]-2,5-diphenyltetrazolium bromide) is a yellow dye which can be converted to water-insoluble purple formazan on the reductive cleavage of its tetrazolium ring by the succinate tetrazolium reductase in mitochondria of cells. The amount of formazan produced is used to detect the number of viable cells and calculate the survival rates.
The ES-2 cells were cultivated in McCoy' 5 A medium supplemented with 10% fetal bovine serum, 10 U/ml of Penicillin and 100 μg/ml of Streptomycin at 37° C., 5% CO2 for 24 hours. Proliferated cells were washed once with PBS, treated with 1× trypsin-EDTA, and centrifuged at 1200 rpm for 5 min. The supernatant was removed and the cell pellet was resuspended in 10 ml of fresh medium by gently shaking. Cells were seeded onto 96-well plates. […] The absorbances were measured at 570 nm with an ELISA Reader to determine the survival rates.

Molecule `COC1=C(OC)C(O)C(C/C=C(\C)CC/C=C(\C)CCC=C(C)C)C(C)C1=O` (stereo not shown) [Compound 1, 4-hydroxy-2,3-dimethoxy-6-methyl-5-(3,7,11-trimethyldodeca-2,6,10-trienyl)cyclohex-2-enone] has an IC50 of 0.8 µg/mL (≈ 2.05 µM).

Source: patent US20130203861A1, “METHODS AND COMPOSITIONS FOR TREATING OVARIAN CANCER” (GOLDEN BIOTECHNOLOGY CORPORATION, priority 2009, published 2013)
